Experimental data from PubChem BioAssay AID1745844 (Carcinogenic Potency Database (CPDB), 2022).
The source made the active and inactive calls. How the calls were made is not given here.

Tested on: rodent lifetime carcinogenesis bioassay, tumor incidence TD50
Assay: carcinogenic potency in animals, long-term in vivo studies, CPDB compilation (AID 1745844)

With `c1ccc(Nc2ccc3ccccc3c2)cc1` the carcinogen call (hamster, strain Syrian Golden, females, by gavage, site: any site (literature study), lesion: several types, types named in the paper, dosed 84 weeks, study length 84 weeks) was “negative (inactive)”, the carcinogen call (hamster, strain Syrian Golden, males, by gavage, site: any site (literature study), lesion: several types, types named in the paper, dosed 84 weeks, study length 84 weeks) was “negative (inactive)” and the TD50 (mouse, strain B6AKF1, females, oral dosing, site: any site (literature study), lesion: several types, types named in the paper, dosed 76 weeks, study length 76 weeks) was 1080 mg/kg/day. For the same compound, the TD50 (mouse, strain B6AKF1, males, oral dosing, site: any site (literature study), lesion: several types, types named in the paper, dosed 76 weeks, study length 76 weeks) was 186 mg/kg/day, the TD50 (mouse, strain B6AKF1, males, oral dosing, site: liver, lesion: hepatoma, dosed 76 weeks, study length 76 weeks) was 460 mg/kg/day and the TD50 (mouse, strain B6AKF1, males, oral dosing, site: lung, lesion: adenoma, dosed 76 weeks, study length 76 weeks) was 431 mg/kg/day. For the same compound, the TD50 (mouse, strain B6C3F1, females, in feed, site: kidney, lesion: tubular-cell adenoma + tubular-cell adenocarcinoma, dosed 103 weeks, study length 104 weeks) was 10800 mg/kg/day, the TD50 (mouse, strain B6C3F1, females, in feed, site: liver, lesion: hepatocellular adenoma + hepatocellular carcinoma + neoplastic nodule, dosed 103 weeks, study length 104 weeks) was 5630 mg/kg/day and the TD50 (mouse, strain B6C3F1, females, oral dosing, site: any site (literature study), lesion: several types, types named in the paper, dosed 76 weeks, study length 76 weeks) was 1080 mg/kg/day. It also gave a TD50 (mouse, strain B6C3F1, females, oral dosing, site: liver, lesion: hepatoma, dosed 76 weeks, study length 76 weeks) of 1080 mg/kg/day, a TD50 (mouse, strain B6C3F1, males, in feed, site: any site (literature study), lesion: several types, types named in the paper, dosed 103 weeks, study length 104 weeks) of 4510 mg/kg/day and a TD50 (mouse, strain B6C3F1, males, in feed, site: liver, lesion: hepatocellular adenoma + hepatocellular carcinoma + neoplastic nodule, dosed 103 weeks, study length 104 weeks) of 1350 mg/kg/day. The TD50 (mouse, strain B6C3F1, males, in feed, site: subcutaneous tissue, lesion: fibrosarcoma + neurofibrosarcoma + sarcoma, NOS, dosed 103 weeks, study length 104 weeks) was 2380 mg/kg/day (inactive), the TD50 (mouse, strain B6C3F1, males, oral dosing, site: any site (literature study), lesion: several types, types named in the paper, dosed 76 weeks, study length 76 weeks) was 108 mg/kg/day and the TD50 (mouse, strain B6C3F1, males, oral dosing, site: liver, lesion: hepatoma, dosed 76 weeks, study length 76 weeks) was 165 mg/kg/day. The carcinogen call (rat, strain Fischer 344, females, in feed, site: any site (literature study), lesion: several types, types named in the paper, dosed 103 weeks, study length 104 weeks) was “negative (inactive)”, the carcinogen call (rat, strain Fischer 344, males, in feed, site: any site (literature study), lesion: several types, types named in the paper, dosed 103 weeks, study length 104 weeks) was “negative (inactive)” and the carcinogen call (rat, strain Sprague-Dawley, females, by gavage, site: any site (literature study), lesion: several types, types named in the paper, dosed 136 weeks, study length 136 weeks) was “negative (inactive)”. For the same compound, the carcinogen call (rat, strain Sprague-Dawley, males, by gavage, site: any site (literature study), lesion: several types, types named in the paper, dosed 160 weeks, study length 160 weeks) was “negative (inactive)”.
With `CCOc1ccc(NC(C)=O)cc1` the TD50 (mouse, strain B6C3F1, females, in feed, site: liver, lesion: hemangioma, dosed 96 weeks, study length 104 weeks) was 29200 mg/kg/day (inactive), the TD50 (mouse, strain B6C3F1, females, in feed, site: liver, lesion: hepatocellular carcinoma, dosed 96 weeks, study length 104 weeks) was 47700 mg/kg/day (inactive) and the TD50 (mouse, strain B6C3F1, females, in feed, site: liver, lesion: hyperplastic nodule, dosed 96 weeks, study length 104 weeks) was 14000 mg/kg/day (inactive). For the same compound, the TD50 (mouse, strain B6C3F1, females, in feed, site: lung, lesion: adenocarcinoma, dosed 96 weeks, study length 104 weeks) was 8830 mg/kg/day (inactive), the TD50 (mouse, strain B6C3F1, females, in feed, site: lung, lesion: adenoma, dosed 96 weeks, study length 104 weeks) was 6890 mg/kg/day (inactive) and the TD50 (mouse, strain B6C3F1, females, in feed, site: urinary bladder, lesion: papilloma, dosed 96 weeks, study length 104 weeks) was 37000 mg/kg/day. For the same compound, the TD50 (mouse, strain B6C3F1, females, in feed, site: urinary bladder, lesion: transitional-cell carcinoma, dosed 96 weeks, study length 104 weeks) was 37000 mg/kg/day, the TD50 (mouse, strain B6C3F1, males, in feed, site: kidney, lesion: renal-cell adenoma, dosed 96 weeks, study length 104 weeks) was 1100 mg/kg/day and the TD50 (mouse, strain B6C3F1, males, in feed, site: kidney, lesion: renal-cell carcinoma, dosed 96 weeks, study length 104 weeks) was 4020 mg/kg/day. The carcinogen call (mouse, strain B6C3F1, males, in feed, site: liver, lesion: hemangioma, dosed 96 weeks, study length 104 weeks) was “negative (inactive)”, the TD50 (mouse, strain B6C3F1, males, in feed, site: liver, lesion: hepatocellular carcinoma, dosed 96 weeks, study length 104 weeks) was 17100 mg/kg/day (inactive) and the carcinogen call (mouse, strain B6C3F1, males, in feed, site: liver, lesion: hyperplastic nodule, dosed 96 weeks, study length 104 weeks) was “negative (inactive)”. The TD50 (mouse, strain B6C3F1, males, in feed, site: lung, lesion: adenocarcinoma, dosed 96 weeks, study length 104 weeks) was 3800 mg/kg/day (inactive), the TD50 (mouse, strain B6C3F1, males, in feed, site: lung, lesion: adenoma, dosed 96 weeks, study length 104 weeks) was 5280 mg/kg/day (inactive) and the carcinogen call (mouse, strain C57BL/6, females, in feed, site: liver, lesion: one or several types, types not named, dosed 77 weeks, study length 77 weeks) was “negative (inactive)”. For the same compound, the TD50 (mouse, strain C57BL/6, males, in feed, site: liver, lesion: hyperplastic nodule, dosed 77 weeks, study length 77 weeks) was 12900 mg/kg/day (inactive), the TD50 (rat, strain Sprague-Dawley, females, in feed, site: all sites, lesion: myeloid leukemia, dosed 78 weeks, study length 104 weeks) was 2560 mg/kg/day (inactive) and the TD50 (rat, strain Sprague-Dawley, females, in feed, site: any site (literature study), lesion: several types, types named in the paper, dosed 78 weeks, study length 104 weeks) was 1210 mg/kg/day. For the same compound, the TD50 (rat, strain Sprague-Dawley, females, in feed, site: ear duct, lesion: squamous-cell carcinoma, dosed 110 weeks, study length 110 weeks) was 1430 mg/kg/day, the TD50 (rat, strain Sprague-Dawley, females, in feed, site: mammary gland, lesion: adenocarcinoma, dosed 110 weeks, study length 110 weeks) was 1380 mg/kg/day and the TD50 (rat, strain Sprague-Dawley, females, in feed, site: nasal cavity, lesion: adenocarcinoma, dosed 78 weeks, study length 104 weeks) was 7730 mg/kg/day. It also gave a TD50 (rat, strain Sprague-Dawley, females, in feed, site: nasal cavity, lesion: squamous-cell carcinoma, dosed 78 weeks, study length 104 weeks) of 48000 mg/kg/day, a TD50 (rat, strain Sprague-Dawley, females, in feed, site: nasal cavity, lesion: transitional-cell carcinoma, dosed 78 weeks, study length 104 weeks) of 23800 mg/kg/day and a TD50 (rat, strain Sprague-Dawley, females, in feed, site: several sites, sites named in the paper, lesion: several types, types named in the paper, dosed 78 weeks, study length 104 weeks) of 2730 mg/kg/day. For the same compound, the TD50 (rat, strain Sprague-Dawley, females, in feed, site: urinary bladder, lesion: papilloma, dosed 78 weeks, study length 104 weeks) was 23800 mg/kg/day, the TD50 (rat, strain Sprague-Dawley, females, in feed, site: urinary bladder, lesion: transitional-cell carcinoma, dosed 78 weeks, study length 104 weeks) was 11700 mg/kg/day and the TD50 (rat, strain Sprague-Dawley, males, in feed, site: all sites, lesion: myeloid leukemia, dosed 78 weeks, study length 104 weeks) was 2380 mg/kg/day (inactive). The TD50 (rat, strain Sprague-Dawley, males, in feed, site: any site (literature study), lesion: several types, types named in the paper, dosed 78 weeks, study length 104 weeks) was 631 mg/kg/day, the TD50 (rat, strain Sprague-Dawley, males, in feed, site: forestomach, lesion: squamous-cell papilloma, dosed 117 weeks, study length 117 weeks) was 2690 mg/kg/day and the TD50 (rat, strain Sprague-Dawley, males, in feed, site: kidney cortex, lesion: renal-cell tumor, dosed 117 weeks, study length 117 weeks) was 1300 mg/kg/day. The TD50 (rat, strain Sprague-Dawley, males, in feed, site: kidney/pelvis, lesion: one or several types, types not named, dosed 117 weeks, study length 117 weeks) was 5470 mg/kg/day, the TD50 (rat, strain Sprague-Dawley, males, in feed, site: kidney/pelvis, lesion: renal-cell carcinoma, dosed 78 weeks, study length 104 weeks) was 38300 mg/kg/day and the TD50 (rat, strain Sprague-Dawley, males, in feed, site: liver, lesion: hemangioma, dosed 117 weeks, study length 117 weeks) was 5470 mg/kg/day. For the same compound, the TD50 (rat, strain Sprague-Dawley, males, in feed, site: nasal cavity, lesion: adenocarcinoma, dosed 78 weeks, study length 104 weeks) was 2380 mg/kg/day, the TD50 (rat, strain Sprague-Dawley, males, in feed, site: nasal cavity, lesion: squamous-cell carcinoma, dosed 78 weeks, study length 104 weeks) was 7530 mg/kg/day and the TD50 (rat, strain Sprague-Dawley, males, in feed, site: nasal cavity, lesion: transitional-cell carcinoma, dosed 78 weeks, study length 104 weeks) was 4050 mg/kg/day. It also gave a TD50 (rat, strain Sprague-Dawley, males, in feed, site: several sites, sites named in the paper, lesion: several types, types named in the paper, dosed 78 weeks, study length 104 weeks) of 741 mg/kg/day, a TD50 (rat, strain Sprague-Dawley, males, in feed, site: urinary bladder, lesion: one or several types, types not named, dosed 117 weeks, study length 117 weeks) of 1640 mg/kg/day and a TD50 (rat, strain Sprague-Dawley, males, in feed, site: urinary bladder, lesion: transitional-cell carcinoma, dosed 78 weeks, study length 104 weeks) of 2710 mg/kg/day. For the same compound, the carcinogen call (rat, strain Wistar, females, in feed, site: urinary tract, lesion: one or several types, types not named, dosed 69 weeks, study length 69 weeks) was “negative (inactive)”.
